The values that follow are results of earlier work, collected in patent US20230165895A1, “COMPOSITIONS AND METHODS FOR EYE HEAL TH COMPRISING AREDS AND VITAMIN B COMPLEX” (BAUSCH + LOMB IRELAND LIMITED, priority 2020, published 2023).

The conditions of the data set: no test, species or source described; stated next to the RDA.

Regarding `Cc1c(C)c2c(c(C)c1O)CC[C@@](C)(CCC[C@H](C)CCC[C@H](C)CCCC(C)C)O2` [vitamin E, alpha tocopherol], the “levels at which no adverse effects have been observed” value is listed as not above 800.0 mg.
